Values of other authors in patent US11337989B2, “Compositions and methods for inhibiting inflammation and diseases using an alginic acid-based antimicrobial compound” (Evofem, Inc., priority 2013, dated 2022).

Legend:
HIV = details: compared with D or racemic lactic acid; Purcell et al. 2012
[1] = at an acidic pH
[2] = tested on: bacteria associated with bacterial vaginosis; details: in vaginal fluid; O'Hanlon et al. 2011
[3] = tested on: vaginal and cervical cells

C[C@H](O)C(=O)O [L form of lactic acid, L-(+)-lactic acid]
potency in inactivating HIV (HIV): more potent

C[C@H](Cn1cnc2c(N)ncnc21)OCP(=O)(O)O [Tenofovir, 1-(6-aminopurin-9-yl)propan-2-yloxymethylphosphonic acid]
water solubility [1]: not water soluble

CC(O)C(=O)O (stereo not shown) [lactic acid]
suppression of bacteria associated with bacterial vaginosis [2]: suppressed

nonoxynol-9 [N-9]
toxicity to vaginal and cervical cells [3]: toxic
